Data set [1] in a line: Stability of the compounds in human blood plasma. Format: in vitro ADME. Particulars: pooled human blood plasma, 10 μM, 4 hours at 37° C. Here is the method: To assess the blood plasma stability of the compounds, we used pooled human blood plasma taken from ten healthy donors. The initial candidate solution (10 mM in DMSO) was diluted with pooled blood plasma to a concentration of 10 μm (test solution). The test solution was incubated in a dry block thermostat for 4 hours at 37° C. HPLC with Agilent 1200 liquid chromatography system (Agilent, USA) was employed to determine peak areas of the compounds in test samples, said peak areas corresponding to the initial test time (prior to incubation) and the final test time (after incubation in a dry block thermostat for 4 hours at 37° C.), proteins were preliminarily precipitated with acetonitrile. Chromatographic analysis was performed in a gradient elution regime with a flow rate of 1 mL/min Substance amount in % in a sample after thermostatting was determined.
The stability of the compounds was estimated. The compounds described herein show at least 90% chemical stability, i.e. they are chemically stable in human blood plasma (Table 2).

Data set [2] is described as follows: Enzyme stability in human liver S9 fractions (Phase II). Format: in vitro ADME. Particulars: pH 7.4; 0.5 mg/mL pooled human liver S9 fractions, 10 μM compound, 37° C.; read-out: Enzyme stability Liver S9 fraction CLint. Here is the method:
Measuring of enzyme stability of the present compounds enabled estimation of their stability towards the action of Phase II biotransformation enzymes.
Enzyme degradation rate was measured by incubating the reaction mixture in a dry block thermostat at 37° C., said reaction mixture comprising 0.5 mg/mL of pooled human liver S9 fractions (XenoTech, USA, cat #H0610), 10 μM compound, 2 mM β-nicotinamide adenine dinucleotide (Carbosynth, UK, cat #NN10871) and 4 mM magnesium chloride in 0, 1 M sodium-phosphate buffer, pH=7, 4. The reaction was quenched with acetonitrile (100 μL of acetonitrile/100 μL of the reaction mixture). After quenching, the samples were centrifuged at 10000 rpm for 10 minutes. Supernatant fluid was tested by chromatographic technique using Agilent1200 (Agilent, USA). Chromatographic analysis was performed in a gradient elution regime with a flow rate of 1 mL/min A graph of the logarithm of substance's peak area as a function of time was made. The dependent factor of the line corresponded to the elimination rate constant K based on which the drug's half-life T½ and degradation rate CLint were calculated:
Based on the data obtained, candidates' enzyme stability in human liver S9 fractions was determined.

Data set [3] has as its target CDK8/Cyclin C (Homo sapiens (Human), UniProt P49336). Briefly: LanthaScreen binding to recombinant CDK8/Cyclin C. Particulars: TR-FRET, Tracer 236 10 nM, CDK8/Cyclin C 5 nM. Here is the method: Capability of compounds of the present invention to bind to CDK8 protein was detected using LanthaScreen (ThermoFisher) assay. We detected FRET signal proportional to the amount of CDK8-bound fluorescently-labeled ligand (Tracer 236) that competes with inhibitor for ATP binding site. We carried out the measurements in a 15 μl reaction volume using a 384-well plate (Corning, #CLS4513). Enzyme CDK8/Cyclin C (ThermoFisher, #PR7261B) was mixed with antibodies Anti-His-tag-Biotin (ThermoFisher, #PV6090), Streptavidin-Eu (ThermoFisher, #PV6025), the resulting mixture was added to plate wells (5 MKπ/well). Final concentrations of substances were as follows: CDK8/Cyclin C—5 nM, Streptavidin-Eu—3 nM, Anti-His-tag-Biotin—3 nM. Staurosporine (S4400, Sigma) was used as a reference inhibitor, and 0.1% solution of dimethyl sulphoxide (DMSO) in reaction buffer was used as a blank, the reaction buffer comprised 250 mM HEPES (pH 7.5), 50 mM MgCl2, 5 mM EGTA, and 0.05% Brij-35.
The inhibitors and controls in question were added to corresponding wells (5 μl/well). The plate was incubated at room temperature for 20 minutes. After incubating, 5 μl/well of tracer solution Alexa Fluor-647 (Kinase Tracer 236, ThermoFisher, #PV5592)) was added to the wells. Final concentration of tracer was 10 nM. Reaction buffer, instead of tracer solution, was used as a negative control. The plate was incubated for 40 minutes at 25° C., TR-FRET signal was then measured according to the manufacturer's guidelines on SPARK20 plate reader (Tecan, Switzerland), and the value was converted to the amount of kinase-bound tracer. IC50 values were calculated using SparkControl Magellan 1.2 software (Tecan, Switzerland) approximating experimental points by four-parameter logistic model with the optimization by Levenberg-Marquardt (Table 5).

Data set [4] has as its system MV4-11 cells. Description: Antiproliferative activity, MV4-11 cells (AlamarBlue). Format: cell-based. To be noted: Homo sapiens, 120 h incubation, read-out: MV-4-11 IC50. Here is the method:
Antiproliferative activity of CDK8 inhibitors according to the present invention was measured in a cell-based test on continuous cell cultures MV4-11 (biphenotypic myelomonocytic leukemia, ATCC® CRL-9591™), KG-1 (acute myeloid leukemia, ATCC® CCL-246™) using a vital stain AlamarBlue (ThermoFisher, #DAL1100). The cells were grown in RPMI-1640 (PanEco, #C330p) medium with addition of 10% FBS (Gibco, #16140-071); washed and resuspended in culture medium with 10% FBS (Gibco, #16140-071) in 96-well culture plates (Corning, #3599) with ≈10×10^3 cells in […] of medium per well. The compounds in question were dissolved in DMSO and diluted with a medium with 10% FBS (Gibco, #16140-071) to a final concentration ranging from 0 to 100 μM. […] of diluted compounds were then added to each well (final DMSO concentration was less than 1%) and incubated under 5% CO2 atmosphere at 37° C. for 120 h. After incubating, 15 μL/well of AlamarBlue (ThermoFisher, #DAL1100) reagent was added, contents of plates were mixed in an orbital shaker (Biosan, Latvia) and further incubated for 3-5 h at 37° C. under 5% CO2 atmosphere. Number of living cells was estimated using a microplate spectrophotometer (Tecan Infinite M200Pro, Switzerland) measuring fluorescent signal at the excitation wavelength (λEx) of 540 nm and emission wavelength (λEm) of 590 nm.
IC50 values were calculated using Magellan 7.2 software (Tecan, Switzerland) approximating experimental points by four-parameter logistic model with the optimization by Levenberg-Marquardt (Table 6).

Chain of CDK8/Cyclin C (P49336 whole entry): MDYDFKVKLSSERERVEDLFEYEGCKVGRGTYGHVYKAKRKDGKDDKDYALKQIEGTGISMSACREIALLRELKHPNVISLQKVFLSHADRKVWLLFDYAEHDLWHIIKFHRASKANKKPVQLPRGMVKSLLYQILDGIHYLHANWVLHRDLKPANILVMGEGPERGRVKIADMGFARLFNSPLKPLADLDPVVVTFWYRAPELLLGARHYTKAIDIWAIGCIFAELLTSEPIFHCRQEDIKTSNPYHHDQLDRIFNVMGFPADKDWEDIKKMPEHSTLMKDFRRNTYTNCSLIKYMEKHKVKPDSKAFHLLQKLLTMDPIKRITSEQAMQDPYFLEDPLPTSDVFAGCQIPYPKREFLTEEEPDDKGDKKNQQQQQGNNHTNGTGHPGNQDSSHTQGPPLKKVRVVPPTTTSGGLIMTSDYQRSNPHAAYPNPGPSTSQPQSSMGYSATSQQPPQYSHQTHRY
Chain of CDK8/Cyclin C (P24863 whole entry partner): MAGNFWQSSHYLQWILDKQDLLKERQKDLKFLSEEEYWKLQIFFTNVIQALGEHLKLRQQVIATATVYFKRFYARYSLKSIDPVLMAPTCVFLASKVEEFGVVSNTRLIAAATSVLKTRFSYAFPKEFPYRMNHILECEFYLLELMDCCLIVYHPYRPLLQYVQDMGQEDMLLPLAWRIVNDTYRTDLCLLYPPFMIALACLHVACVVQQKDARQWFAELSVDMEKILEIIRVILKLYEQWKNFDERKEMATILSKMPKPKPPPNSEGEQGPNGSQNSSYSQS

Take `COCCn1cc(-c2ccc(-c3cnc(N)c4ncc(C(=O)NCC5CC5)cc34)cc2)cn1` [Compound 3.45, 8-amino-N-(cyclopropylmethyl)-5-(4-(1-(2-methoxyethyl)-1H-pyrazole-4-yl)phenyl)-1,7-naphthyridine-3-carboxamide]: the “Chemical stability in human blood plasma 4 h, %” value (“Chemical stability … %” for short) in data set [1] is 91.2%. Also, the microsomal CLint at 10 μM in data set [2] worked out at 1.1 µL/min/mg. The half-maximal inhibitory concentration (IC50) was found to be 1.63 nM in data set [3] and 3.4 nM in data set [4].

In the case of `COCCn1cc(-c2ccc(-c3cnc(N)c4ncc(C(=O)NC5CC5)cc34)cc2)cn1` [Compound 3.48], the “Chemical stability … %” value in data set [1] worked out at 98.4%. In addition, the microsomal CLint at 10 μM in data set [2] worked out at 2.5 µL/min/mg. Further, the IC50 worked out at 1.1 nM in data set [3] and 3.9 nM in data set [4].

Consider `CN(C)C(=O)Cn1cc(-c2ccc(-c3cnc(N)c4ncc(C(=O)N5CCC5)cc34)cc2)cn1` [Compound 3.52, 2-(4-(4-(8-amino-3-(azetidine-1-carbonyl)-1,7-naphthyridine-5-yl)phenyl)-1H-pyrazole-1-yl)-N,N-dimethylacetamide], for which the “Chemical stability … %” value in data set [1] came out at 100.0%. The microsomal CLint at 10 μM in data set [2] is 2.4 µL/min/mg. In addition, the values for the IC50 in data set [3] and in data set [4] were 0.96 nM and 0.9 nM, respectively.

Values taken from patent US11840531B2, “CDK8/19 inhibitors” (JOINT STOCK COMPANY “BIOCAD”, priority 2018, dated 2023).
